Data on six compounds can be found in patent US12318488B2, “Solid dosage form production” (University of Central Lancashire, priority 2018, dated 2025).

Common to all, as to type: physicochemical
The nature of series [1]: HPLC analysis of API content in filaments and 3D printed tablets after hot melt extrusion and FDM 3D printing. As to conditions: for Residual Percentage (potency of drug following HME): Filament; for Residual Percentage (potency of drug following HME and FDM 3D printing): Tablets. Here is the method:
Filaments containing individual drugs at different concentration were produced to achieve the individual target dose of each model drug. A Thermo Scientific HAAKE MiniCTW hot melt extruder (Karlsruhe, Germany) was used to prepare the filaments. Blank (drug-free) and individual drug loaded filaments were prepared by blending 10 g of dry ingredients (composition according to Table I) with additional 2 g of distilled water (temporary plasticiser) (Table 1) using mortar and pestle. This blend mixture was then fed to the hot melt extruder at 90° C. and mixed at 100 rpm, nozzle size of 1.5 mm. The filaments were extruded at the same temperature at 35 rpm. The extruded filaments were dried at 100° C. at 0% RH for 1 hour in a FD240 Binder heating chamber (Tuttlingen, Germany). For comparison purposes, a filament was also extruded without water at an extrusion temperature of 180° C. and a mixing rate of 100 rpm.
The tablets printed were designed using Autodesk® 3ds Max Design 2016 software version 18.0 (Autodesk, Inc., USA). The designs were then imported to the computer software in stereolithographic (STL) format. The extruded filaments were printed by a Makerbot 2×3D printer (Makerbot Industries, NY, USA) fitted with 0.4 mm nozzle and controlled by Simplify 3D software version 4.0 (Cincinnati, OH, USA). Printing took place using nozzle and building plate temperatures of 150 and 40° C. respectively. The tablets were printed following a concentric fill pattern and 100% infill with a layer thickness of 166 μm. For comparison reasons, tablets (without addition of water) were printed following the same settings as above but at nozzle temperature of 210° C.
The HPLC analysis was performed using Agilent 1260 series UV-HPLC (Agilent Technologies, Germany) equipped with a Synergi Polar column (250×4.6 mm, 4 μm particle size) (Phenomenex, Macclesfield, UK) at 35° C. The analysis was carried out at a detection wavelength of 254 nm, flow rate of 1 mL/min, injection volume of 100 μL and a 4 minute run time. The mobile phase consisted of a 1:1 mixture of solvent A (acetonitrile) and solvent B (water).
For theophylline, the same UV-HPLC system and column were used as detailed above for hydrocortisone. The mobile phase constituted of 10 mM solution of ammonium acetate buffer, methanol and acetonitrile (86:7:7). Analysis was carried out at a wavelength of 272 nm, temperature of 40° C., flow rate of 1 ml/min, injection volume of 5 μL and a run time of 7 min.
In order to examine the effect of hot melt extrusion (HME) and FDM 3D printing on the integrity of the active pharmaceutical ingredient (API), API-loaded filaments were analysed for API content post drying as well as in the 3D printed tablets. Samples (API loaded filaments or tablets) were accurately weighed and placed in 250 mL of 1:1 water:acetonitrile mixture for 2 hour under sonication. The solutions were filtered through 0.22 μm Millex-GP syringe filters (Merck Millipore, USA) and prepared for HPLC analysis.

The nature of series [2]: Drug content analysis via HPLC of extruded filaments and 3D printed tablets. The following applies: percentage recovery of the active ingredient. The method, then: Filaments were prepared with the target concentration of components as detailed in Table III. 10 g of the dry ingredients (% weights according to Table III) was blended with 2 g of distilled non-ionised water (temporary plasticiser) using a mortar and pestle. The resulting blends were fed to a hot melt extruder at 90° C. and mixed at 100 rpm. A Thermo Scientific HAAKE MiniCTW hot melt extruder (Karlsruhe, Germany) was used to prepare the filaments. The filaments were dried for 1 hour at 100° C. in a drying and heating chamber (Binder Inc., series ED, Tuttinglen, Germany) and then used in 3D printing using the methodology described in Example 2 (i.e., nozzle temperature of 150° C.).
A HPLC method was developed and validated in order to assess the assay of the active substances in the extruded filaments and the 3D printed tablets. Each sample was accurately weighed (approximately 5 mg) and placed in a 1000 ml volumetric flask and dissolved in a mixture of water:acetonitrile:methanol (80:10:10). The solutions were then filtered through an Econofltr 0.2 μm syringe (Agilent Technologies Ltd., Cheadle, UK) and analysed by HPLC.
Lisinopril dihydrate, indapamide, rosuvastatin calcium and amlodipine content was assessed using Agilent UV-HPLC 1260 series (Agilent Technologies, Germany) equipped with a synergy max column (250×4.6 mm, 4 μm particle size), at temperature of 50° C. The analysis was carried out at 210 nm wavelength, flow rate 1 mL/min, injection volume was 100 μl and run time of 35 minutes. The mobile phase consisted of acetonitrile (A) and buffer pH3 (B) (which was prepared by adjustment of the pH of distilled water with phosphoric acid) according to the gradient in Table IV. Drug assay of the multi-layer polypill I (prepared from the uni-matrix) was assessed based on the assumption that each layer corresponds to an equal part of the tablet.

The nature of series [3]: HPLC analysis of hydrocortisone content in extruded filament and FDM 3D printed tablet at different drug loadings. The following applies: for Drug potency in filament average ± SD (n = 3): Eudragit EPO filament, HME 90° C.; for Drug potency in FDM 3D printed average ± SD (n = 3): nozzle 135° C. Here is the method:
Filaments were compounded according to the formulation in Table VIII using Thermo Fisher Haake MiniCTW compounder. The extruder speed was set at 35 rpm and temperature at 90° C.
Tablets were constructed with the pre-prepared filaments using a commercial FDM 3D printer equipped with 0.4 mm nozzle size. The templates used to print the tablets were designed in a caplet shape using Autodeski 3ds Maxi Design 2012 software version 14.0 (Autodesk, Inc., USA). The design was saved in a stereo-lithography (.stl) file format and was imported to the 3D software, MakerWare Version 3.9.1.1143 (Makerbot Industries, LLC., USA). Tablets were printed using modified settings of the software for PLA: as follows: type of printer: Replicator 2×; resolution: standard; speed of extruder 90 mm/s while extruding and 150 mm/s while traveling; infill: 100%; height of the layer: […]. No supports or rafts were utilized. The temperatures for the nozzle and build plate of the 3D printer were 135° C. and 60° C. respectively. Blue Scotch painter's tape was applied to the build platform to facilitate the adherence of the printed object during FDM 3D printing.
• Hydrocortisone content was assessed using HPLC using the following conditions: • Mobile phase: water:acetonitrile 1:1. • Stationary phase: Phenomenex® column Synergi Polar RP column with particle size 4 μm with 80 Å • pores, length of 250 mm • Column temperature: 35° C. • Injection Volume: 10 μL. • Flow rate: 1 mL/min • Detection: UV, 254 nm
The blend powder, the extruded filament or the printed tablet were placed into a 500 mL volumetric flask along with HCl. The flasks were sonicated for 30 minutes, followed by allowing the solutions to cool back to room temperature (approximately 30 minutes). A 10 mL syringe was filled with the resulting solution. A filter was added to the syringe; the first 5 mL was discarded, the second 5 mL used to fill a HPLC vial.

The mark [4] stands for this setting: no temporary plasticiser, 180° C. for HME.
[5] abbreviates: temporary plasticiser (water), 90° C. for HME.
[6] abbreviates: no temporary plasticiser, 180° C. for HME followed by 210° C. for 3D-printing.
Where [7] appears, read: temporary plasticiser, 90° C. for HME followed by 150° C. for 3D-printing.
Setting [8] is: 3D printed at nozzle temperature 150° C.
Where [9] appears, read: HME 90° C., dried 1 hour at 100° C.
[10] abbreviates: 3D printed at nozzle temperature 150° C., in %.
Where [11] appears, read: HME 90° C., dried 1 hour at 100° C., in %.

For the compound `Cn1c(=O)c2[nH]cnc2n(C)c1=O` [Theophylline], the results for the “Residual Percentage (potency of drug following HME)” value in series [1] (setting [4]) and in series [1] (setting [5]) were 100.61% and 100%, respectively. The figures for the “Residual Percentage (potency of drug following HME and FDM 3D printing)” value in series [1] (setting [6]) and in series [1] (setting [7]) were 100.53% and 100.2%, respectively.

Turning to `CCOC(=O)C1=C(COCCN)NC(C)=C(C(=O)OC)C1c1ccccc1Cl` (centres unmarked) [Amlodipine besylate, amlodipine besylate], the “Drug contents in tablets, Amlodipine” value in series [2] (setting [8]) amounted to 90.68 ± 2.28. The “Drug contents in filament, Amlodipine” value in series [2] (setting [9]) stood at 97.89 ± 1.94.

Regarding `CC(C)c1nc(N(C)S(C)(=O)=O)nc(-c2ccc(F)cc2)c1/C=C/[C@@H](O)C[C@@H](O)CC(=O)[O-].CC(C)c1nc(N(C)S(C)(=O)=O)nc(-c2ccc(F)cc2)c1/C=C/[C@@H](O)C[C@@H](O)CC(=O)[O-].[Ca+2]` [Rosuvastatin calcium, rosuvastatin calcium], the “Drug contents in tablets, Rosuvastatin” value in series [2] (setting [10]) stood at 95.4 ± 2.37. The “Drug contents in filament, Rosuvastatin” value in series [2] (setting [11]) is recorded as 98.2 ± 1.09.

Consider `CC1Cc2ccccc2N1NC(=O)c1ccc(Cl)c(S(N)(=O)=O)c1` (centres unmarked) [Indapamide, indapamide], for which the “Drug contents in tablets, Indapamide” value in series [2] (setting [10]) is given as 96.06 ± 2.06. In addition, the “Drug contents in filament, Indapamide” value in series [2] (setting [11]) is recorded as 93.32 ± 1.67.

On to `NCCCC[C@H](N[C@@H](CCc1ccccc1)C(=O)O)C(=O)N1CCC[C@H]1C(=O)O` [Lisinopril dihydrate], for which the “Drug contents in tablets, Lisinopril” value in series [2] (setting [8]) stood at 87.8 ± 1.5. In addition, the “Drug contents in filament, Lisinopril” value in series [2] (setting [9]) was 93.9 ± 1.66.

For the compound `C[C@]12CCC(=O)C=C1CC[C@@H]1[C@@H]2[C@@H](O)C[C@@]2(C)[C@H]1CC[C@]2(O)C(=O)CO` [Hydrocortisone], the “Residual Percentage (potency of drug following HME)” value in series [1] (setting [4]) is given as 19.98%; in series [1] (no temporary plasticiser, 180° C. for HME, listed as hydrocortisone), 20%; in series [1] (setting [5]), 100.9%; in series [1] (temporary plasticiser (water), 90° C. for HME, listed as hydrocortisone), 100%. In addition, the “Residual Percentage (potency of drug following HME and FDM 3D printing)” value in series [1] (setting [6]) worked out at 3.02%; in series [1] (no temporary plasticiser, 180° C. for HME followed by 210° C. for 3D-printing, listed as hydrocortisone), 3.02%; in series [1] (setting [7]), 48.6%; in series [1] (temporary plasticiser, 90° C. for HME followed by 150° C. for 3D-printing, listed as hydrocortisone), 48.6%. In addition, the “Drug potency in filament average ± SD (n = 3)” value in series [3] (Drug Concentration 1%) is 85.97 ± 0.14%; in series [3] (Drug Concentration 5%) it was 92.25 ± 0.21%; in series [3] (Drug Concentration 10%) it was 99 ± 0.34%. Further, the “Drug potency in FDM 3D printed average ± SD (n = 3)” value was 75.13 ± 0.62% in series [3] (Drug Concentration 1%), 95.4 ± 4.3% in series [3] (Drug Concentration 5%) and 98.2 ± 0.45% in series [3] (Drug Concentration 10%).
